Tests used:
Pyrenophora teres = assay: Action against Pyrenophora teres (net blotch), barley leaf segments, preventive; assay type: in vivo; settings: foliar, 60 ppm active ingredient, sprayed before inoculation, assessed 4 dpi, read-out: inhibition (preventive fungicidal activity)
Experimental: (§1) Barley leaf segments are placed on agar in multiwell plates (24-well format) and sprayed with test solutions (60 ppm active ingredient). After drying, the leaf disks are inoculated with a spore suspension of the fungus. After appropriate incubation the activity of a compound is assessed 4 dpi (days after inoculation) as preventive fungicidal activity.

[1] = test system: Fusarium graminearum, Syn. Gibberella zeae; assay: whole plant or invertebrate; assay type: in vivo; settings: in Triticum aestivum, read-out: inhibition (preventative fungicidal activity)
Fusarium culmorum = assay: whole plant or invertebrate; assay type: in vivo; settings: in Triticum aestivum, read-out: inhibition (preventative fungicidal activity)
[2] = test system: Phaeosphaeria nodorum (Septoria nodorum); assay: Action against Phaeosphaeria nodorum/wheat/leaf disc preventative (glume blotch); assay type: in vivo; settings: wheat leaf segments, 60 ppm active ingredient, sprayed before inoculation, assessed 4 dpi
Experimental: as §1, with “Wheat leaf segments” for “Barley leaf segments”, “agar in a multiwell plate” for “agar in multiwell plates”, “a multiwell plate (24-well format)” for “in multiwell plates (24-well format)”

[3] = test system: Monographella nivalis (Microdochium nivale); assay: Action against Monographella nivalis/liquid culture (foot rot cereals); assay type: cell-based; settings: liquid culture (PDB), 200 ppm active ingredient, 24° C., photometrically after 4-6 days
Experimental: Conidia of the fungus from cryogenic storage are directly mixed into nutrient broth (PDB potato dextrose broth). After placing a (DMSO) solution of the test compounds (200 ppm active ingredient) into a microtiter plate (96-well format) the nutrient broth containing the fungal spores is added. The test plates are incubated at 24° C. and the inhibition of growth is measured photometrically after 4-6 days.

Puccinia recondita = assay: Action against Puccinia recondita/wheat/leaf disc curative (brown rust); assay type: in vivo; settings: wheat leaf segments, 200 ppm active ingredient, applied one day after inoculation, assessed 8 dpi
Source text: Wheat leaf segments are placed on agar in multiwell plates (24-well format). The leaf disks are then inoculated with a spore suspension of the fungus. One day after inoculation the test solution is applied (200 ppm active ingredient).

SMILES | inhibition (preventive fungicidal activity) [2] | inhibition of growth [3] | other results
CON(C(=O)c1cn(C)nc1C(F)F)C(C)Cc1sc2ccc(Cl)cc2c1Cl (centres unmarked) [Compound 1.001, 3-Difluoromethyl-1-methyl-1H-pyrazole-4-carboxylic acid [2-(3,5-dichlorobenzo[b]thiophen-2-yl)-1-methyl-ethyl]methoxyamide] |  |  | inhibition at 60 ppm (Pyrenophora teres): ≥ 80%; inhibition at 60 ppm [1]: ≥ 80%; inhibition at 60 ppm (Fusarium culmorum): ≥ 80%; melting point: 129 to 131 °C
CON(C(=O)c1cn(C)nc1C(F)F)C(C)Cc1sc2cc(Cl)ccc2c1Cl (centres unmarked) [Compound 1.002] | 80% | 80% | 
CON(C(=O)c1cn(C)nc1C(F)F)C(C)Cc1sc2ccc(Br)cc2c1Cl (centres unmarked) [Compound 1.006] | 80% | 80% | inhibition (curative fungicidal activity) (Puccinia recondita): 80%
CC(Cc1sc2ccc(Cl)cc2c1Cl)N(O)C(=O)c1cn(C)nc1C(F)F (centres unmarked) [Compound 1.010] |  | 80% | 
COC(c1sc2cc(Cl)ccc2c1Cl)C(C)N(OC)C(=O)c1cn(C)nc1C(F)F (centres unmarked) [Compound 1.015] | 80% | 80% | 
COC(c1sc2ccc(Br)cc2c1Cl)C(C)N(OC)C(=O)c1cn(C)nc1C(F)F (centres unmarked) [Compound 1.016] |  | 80% | 
CON(C(=O)c1cn(C)nc1C(F)(F)F)C(C)Cc1sc2cc(Cl)ccc2c1Cl (centres unmarked) [Compound 2.002] | 80% | 80% | 
COC(c1sc2cc(Cl)ccc2c1Cl)C(C)N(OC)C(=O)c1cn(C)nc1C(F)(F)F (centres unmarked) [Compound 2.015] |  | 80% | 
CON(C(=O)c1c(C)nn(C)c1F)C(C)Cc1sc2cc(Cl)ccc2c1Cl (centres unmarked) [Compound 3.002] | 80% |  | 

From patent publication US8268877B2, “Microbiocides” (Syngenta Crop Protection, LLC, priority 2009, dated 2012)
